The values that follow come from US20260250322A1, “NEW PEPTIDES AS SELECTIVE IL-23 RECEPTOR INHIBITORS” (SANOFI, priority 2023, published 2026).

Numbered stars: 1 amine (or outer) side, 2 acyl side, 3 side chain; on linkers, the order of the positions; unused ones are H or OH. Bridge positions count the residues as written; N and C are the ends. Square brackets hold non-standard residues; d marks the D form. Peptide text beside a SMILES is read from it. Tyr(Me) = Yme = 4-methoxy-L-phenylalanine (O-methyl-tyrosine), COc1ccc(C[C@H](N[*:1])C(=O)[*:2])cc1; 1Nal = N[C@@H](Cc1cccc2ccccc12)C(=O)O; 2Nal = N[C@@H](Cc1ccc2ccccc2c1)C(=O)O; AEF = NCCOc1ccc(C[C@H](N)C(=O)O)cc1; Orn = NCCC[C@H](N)C(=O)O; Thp = NC1(C(=O)O)CCOCC1; Aib = CC(C)(N)C(=O)O

First the molecules themselves.
T1: IL-23 receptor on the surface of HEK-Blue IL-23 cells (UniProt Q5VWK5 24-629, limits assumed)
T1 sequence (looked up): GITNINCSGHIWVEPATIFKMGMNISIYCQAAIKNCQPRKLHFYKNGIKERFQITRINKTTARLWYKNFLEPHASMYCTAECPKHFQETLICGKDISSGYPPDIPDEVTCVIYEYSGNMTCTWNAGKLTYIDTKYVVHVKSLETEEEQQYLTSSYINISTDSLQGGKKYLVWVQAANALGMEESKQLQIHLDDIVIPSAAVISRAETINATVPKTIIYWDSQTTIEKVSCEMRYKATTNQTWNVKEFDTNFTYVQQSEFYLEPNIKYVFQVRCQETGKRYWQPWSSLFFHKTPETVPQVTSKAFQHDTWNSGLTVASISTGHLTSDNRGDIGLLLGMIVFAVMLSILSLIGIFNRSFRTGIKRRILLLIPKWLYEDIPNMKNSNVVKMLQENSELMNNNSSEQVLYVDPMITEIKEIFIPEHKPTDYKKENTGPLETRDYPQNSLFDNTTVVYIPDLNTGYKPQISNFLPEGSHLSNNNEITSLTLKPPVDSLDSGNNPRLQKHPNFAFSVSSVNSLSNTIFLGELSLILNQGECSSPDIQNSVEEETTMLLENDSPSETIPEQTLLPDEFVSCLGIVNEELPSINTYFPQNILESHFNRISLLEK

B1: peptide compound SEQ ID NO: 6 (peptide)
peptide: Ac-DNTWQR[Tyr(Me)][2Nal][Aib][Orn]NN-NH2
modifications: lactam 1-10
SMILES: COc1ccc(C[C@@H]2NC(=O)[C@H](CCCNC(=N)N)NC(=O)[C@H](CCC(N)=O)NC(=O)[C@H](Cc3c[nH]c4ccccc34)NC(=O)[C@H]([C@@H](C)O)NC(=O)[C@H](CC(N)=O)NC(=O)[C@@H](NC(C)=O)CC(=O)NCCC[C@@H](C(=O)N[C@@H](CC(N)=O)C(=O)N[C@@H](CC(N)=O)C(N)=O)NC(=O)C(C)(C)NC(=O)[C@H](Cc3ccc4ccccc4c3)NC2=O)cc1
B2: peptide compound SEQ ID NO: 7 (peptide)
peptide: Ac-[dK]NTWQL[Tyr(Me)][1Nal][Aib]DNN-NH2
modifications: lactam 1-10
SMILES: COc1ccc(C[C@@H]2NC(=O)[C@H](CC(C)C)NC(=O)[C@H](CCC(N)=O)NC(=O)[C@H](Cc3c[nH]c4ccccc34)NC(=O)[C@H]([C@@H](C)O)NC(=O)[C@H](CC(N)=O)NC(=O)[C@H](NC(C)=O)CCCCNC(=O)C[C@@H](C(=O)N[C@@H](CC(N)=O)C(=O)N[C@@H](CC(N)=O)C(N)=O)NC(=O)C(C)(C)NC(=O)[C@H](Cc3cccc4ccccc34)NC2=O)cc1
B3: peptide compound SEQ ID NO: 8 (peptide)
peptide: Ac-[dK]NTWQA[Tyr(Me)][1Nal][Aib]DNN-NH2
modifications: lactam 1-10
SMILES: COc1ccc(C[C@@H]2NC(=O)[C@H](C)NC(=O)[C@H](CCC(N)=O)NC(=O)[C@H](Cc3c[nH]c4ccccc34)NC(=O)[C@H]([C@@H](C)O)NC(=O)[C@H](CC(N)=O)NC(=O)[C@H](NC(C)=O)CCCCNC(=O)C[C@@H](C(=O)N[C@@H](CC(N)=O)C(=O)N[C@@H](CC(N)=O)C(N)=O)NC(=O)C(C)(C)NC(=O)[C@H](Cc3cccc4ccccc34)NC2=O)cc1
B4: peptide compound SEQ ID NO: 41 (peptide)
peptide: Ac-KNTWQR[Tyr(Me)][2Nal][Thp]DNN-NH2
modifications: lactam 1-10
SMILES: COc1ccc(C[C@@H]2NC(=O)[C@H](CCCNC(=N)N)NC(=O)[C@H](CCC(N)=O)NC(=O)[C@H](Cc3c[nH]c4ccccc34)NC(=O)[C@H]([C@@H](C)O)NC(=O)[C@H](CC(N)=O)NC(=O)[C@@H](NC(C)=O)CCCCNC(=O)C[C@@H](C(=O)N[C@@H](CC(N)=O)C(=O)N[C@@H](CC(N)=O)C(N)=O)NC(=O)C3(CCOCC3)NC(=O)[C@H](Cc3ccc4ccccc4c3)NC2=O)cc1
B5: peptide compound SEQ ID NO: 5 (peptide)
peptide: Ac-[dK]NTWQR[Tyr(Me)][2Nal][Aib]ENN-NH2
modifications: lactam 1-10
SMILES: COc1ccc(C[C@@H]2NC(=O)[C@H](CCCNC(=N)N)NC(=O)[C@H](CCC(N)=O)NC(=O)[C@H](Cc3c[nH]c4ccccc34)NC(=O)[C@H]([C@@H](C)O)NC(=O)[C@H](CC(N)=O)NC(=O)[C@H](NC(C)=O)CCCCNC(=O)CC[C@@H](C(=O)N[C@@H](CC(N)=O)C(=O)N[C@@H](CC(N)=O)C(N)=O)NC(=O)C(C)(C)NC(=O)[C@H](Cc3ccc4ccccc4c3)NC2=O)cc1

The target of the first test is T1, IL-23 receptor on the surface of …. As to the kind of experiment: cell-based or functional assay.
Conditions: not given
With B1, the “Inhibition of IL-23 induced pSTAT3 (IC50 nM)” value was determined as 366 nM. The same measure, in the same setting: to B2 belongs 850 nM; to B3, 943 nM. Same read-out and setting: to B4 belongs 221 nM; to B5, 432 nM.

The next test deals with IL-23 induced STAT3 signaling. Put plainly: Inhibition of IL-23 induced STAT3 signaling in HEK-Blue IL-23 cells (SEAP reporter). It counts as cell-based. Particulars: human IL-23 0.25 ng/ml, read-out: Inhibition of IL-23 induced pSTAT3 (IC50 nM). An excerpt: HEK-Blue™ IL-23 cells (Invivogen) are designed for the detection of bioactive human (hIL-23) and murine IL-23 (mIL-23) by monitoring the activation of the STAT3 pathway. Binding of IL-23 to its receptor on the surface of HEK-Blue™ IL-23 cells triggers a signaling cascade leading to the activation of STAT3 and the subsequent production of secreted embryonic alkaline phosphatase (SEAP). This can be readily assessed using QUANTI-Blue™ Solution, a SEAP detection reagent.
HEK-Blue™ IL-23 cells were cultured as described by Invivogen.
On the first day of assay 10 μL of the HEK-Blue IL-23 cell suspension (final concentration: 10,000 cells/well) and 10 μl of serially diluted compound solutions were dispensed into a 384-well assay plate. After pre-incubation of the reaction mixtures at 37° C./5% CO2/95% humidity for 60 minutes, 10 μl of the humanIL-23 cytokine (final concentration: 0.25 ng/ml) was added to each well for the STAT3 signaling activation. The plate was incubated overnight at 37° C./5% CO2/95% humidity.
On the second day 20 μl per well of Quanti-Blue detection solution (prepared according to the manufacture instruction) was dispensed into a new 384-well plate and followed by the transfer of 5 μl supernatant of the overnight incubated cell/sample mixtures. After incubation of 45 min at room temperature signals were measured with PHERAstar (BMG) at OD 620-655 nm.
Dose response data were fitted with XLfit.
`CC(=O)N[C@@H]1CCCCNC(=O)C[C@@H](C(=O)N[C@@H](CC(N)=O)C(=O)N[C@@H](CC(N)=O)C(N)=O)NC(=O)C(C)(C)NC(=O)[C@H](Cc2cccc3ccccc23)NC(=O)[C@H](Cc2ccc(O)cc2)NC(=O)[C@H](CCCNC(=N)N)NC(=O)[C@H](CCC(N)=O)NC(=O)[C@H](Cc2c[nH]c3ccccc23)NC(=O)[C@H]([C@@H](C)O)NC(=O)[C@H](CC(N)=O)NC1=O` [compound 14] (Ac-[dK]NTWQRY[1Nal][Aib]DNN-NH2; lactam 1-10): the IC50 (in general, the concentration that gives 50% inhibition) was 1380 nM. On the same count and under the same terms, to `COc1ccc(C[C@@H]2NC(=O)[C@H](CCCNC(=N)N)NC(=O)[C@H](CCC(N)=O)NC(=O)[C@H](Cc3c[nH]c4ccccc34)NC(=O)[C@H]([C@@H](C)O)NC(=O)[C@H](CC(N)=O)NC(=O)[C@H](NC(C)=O)CCCCNC(=O)CC[C@@H](C(=O)N[C@@H](CC(N)=O)C(=O)N[C@@H](CC(N)=O)C(N)=O)NC(=O)C(C)(C)NC(=O)[C@H](Cc3cccc4ccccc34)NC2=O)cc1` [compound 16] (Ac-[dK]NTWQRY(Me)[1Nal][Aib]ENN-NH2; lactam 1-10) belongs 8010 nM; to `COc1ccc(C[C@@H]2NC(=O)[C@H](CCCNC(=N)N)NC(=O)[C@H](CCC(N)=O)NC(=O)[C@H](Cc3c[nH]c4ccccc34)NC(=O)[C@H]([C@@H](C)O)NC(=O)[C@H](CC(N)=O)NC(=O)[C@H](NC(C)=O)CCCCNC(=O)C[C@@H](C(=O)N[C@@H](CC(N)=O)C(=O)N[C@@H](CC(N)=O)C(N)=O)NC(=O)[C@H](CCCCNC(C)=O)NC(=O)[C@H](Cc3cccc4ccccc34)NC2=O)cc1` [compound 17] (Ac-[dK]NTWQRY(Me)[1Nal]K(Ac)DNN-NH2; lactam 1-10), 5650 nM. With `COc1ccc(C[C@@H]2NC(=O)[C@H](CCCNC(=N)N)NC(=O)[C@H](CCC(N)=O)NC(=O)[C@H](Cc3c[nH]c4ccccc34)NC(=O)[C@H]([C@@H](C)O)NC(=O)[C@H](CC(N)=O)NC(=O)[C@H](NC(C)=O)CCCCNC(=O)C[C@@H](C(=O)N[C@@H](CC(N)=O)C(=O)N[C@@H](CC(N)=O)C(N)=O)NC(=O)[C@H](CCC(N)=O)NC(=O)[C@H](Cc3cccc4ccccc34)NC2=O)cc1` [compound 19] (Ac-[dK]NTWQRY(Me)[1Nal]QDNN-NH2; lactam 1-10), the 50% inhibitory concentration (IC50) amounted to 9600 nM. The same measure, in the same setting: to `COc1ccc(C[C@@H]2NC(=O)[C@H](CCCNC(=N)N)NC(=O)[C@H](CCC(N)=O)NC(=O)[C@H](Cc3c[nH]c4ccccc34)NC(=O)[C@H]([C@@H](C)O)NC(=O)[C@H](CC(N)=O)NC(=O)[C@H](NC(C)=O)CCCCNC(=O)C[C@@H](C(=O)N[C@@H](CC(N)=O)C(N)=O)NC(=O)C(C)(C)NC(=O)[C@H](Cc3ccc4ccccc4c3)NC2=O)cc1` [compound 26] (Ac-[dK]NTWQRY(Me)[2Nal][Aib]DN-NH2; lactam 1-10) belongs 8110 nM; to `COc1ccc(C[C@@H]2NC(=O)[C@H](CCCNC(=N)N)NC(=O)[C@H](CCC(N)=O)NC(=O)[C@H](Cc3c[nH]c4ccccc34)NC(=O)[C@H]([C@@H](C)O)NC(=O)[C@H](CC(N)=O)NC(=O)[C@H](NC(C)=O)CCCCNC(=O)C[C@@H](C(=O)N[C@@H](CC(N)=O)C(=O)N[C@@H](CC(N)=O)C(N)=O)NC(=O)[C@H](CCCCNC(C)=O)NC(=O)[C@H](Cc3ccc4ccccc4c3)NC2=O)cc1` [compound 28] (Ac-[dK]NTWQRY(Me)[2Nal]K(Ac)DNN-NH2; lactam 1-10), 2210 nM; to `COc1ccc(C[C@@H]2NC(=O)[C@H](CCCNC(=N)N)NC(=O)[C@H](CCC(N)=O)NC(=O)[C@H](Cc3c[nH]c4ccccc34)NC(=O)[C@H]([C@@H](C)O)NC(=O)[C@H](CC(N)=O)NC(=O)[C@H](NC(C)=O)CCCCNC(=O)C[C@@H](C(=O)N[C@@H](CC(N)=O)C(=O)N[C@@H](CC(N)=O)C(N)=O)NC(=O)[C@H](CCC(N)=O)NC(=O)[C@H](Cc3ccc4ccccc4c3)NC2=O)cc1` [compound 30] (Ac-[dK]NTWQRY(Me)[2Nal]QDNN-NH2; lactam 1-10), 6050 nM. With `CC(=O)N[C@H]1CCCNC(=O)CC[C@@H](C(=O)N[C@@H](CC(N)=O)C(=O)N[C@@H](CC(N)=O)C(N)=O)NC(=O)C(C)(C)NC(=O)[C@H](Cc2ccc3ccccc3c2)NC(=O)[C@H](Cc2ccc(OCCN)cc2)NC(=O)[C@H](CCCNC(=N)N)NC(=O)[C@H](CCC(N)=O)NC(=O)[C@H](Cc2c[nH]c3ccccc23)NC(=O)[C@H]([C@@H](C)O)NC(=O)[C@H](CC(N)=O)NC1=O` [compound 38] (Ac-[Orn]NTWQR[AEF][2Nal][Aib]ENN-NH2; lactam 1-10), the IC50 was 1570 nM.
